Measured values published in patent US8076324B2, “Di(hetero)arylcyclohexane derivatives, their preparation, their use and pharmaceutical compositions comprising them” (Sanofi-Aventis, priority 2007, dated 2011).

Biological target: T1, myocardial ATP-sensitive potassium channel (SUR2A/Kir6.2) (UniProt Q61743+Q63563)
T1 construct: expressed in transfected cells
Test: Rubidium efflux test on HEK293 cells transfected with SUR2A and Kir6.2 (myocardial action)
Assay type: cell-based, SUR2A from the rat, Kir6.2 from the mouse
Conditions: HEK293 cells transfected with SUR2A/Kir6.2; KATP channels opened by rilmakalim; 25 min incubation; read-out: IC50 values for the inhibition of the rubidium efflux
Procedure: 1) Action on the SUR2A/Kir6.2 potassium channel (myocardial action) The action of the compounds on the ion transport through the myocardial ATP-sensitive potassium channel (SUR2A/Kir6.2) was determined in the rubidium efflux test system described below on human embryonic kidney cells HEK293 which were transfected with the components SUR2A and Kir6.2 (cf. Weyermann et al., Naunyn-Schmiedeberg's Arch. Pharmacol. 369, 374-381 (2004)).
The HEK293 cells were cultured at 37° C. in a humidified air atmosphere with 7% carbon dioxide in minimal essential medium with Earle's salts and L-glutamine (MEM, Gibco), which was supplemented with 10% fetal calf serum and zeozin (0.36 mg/ml) and geneticin (0.75 mg/ml). The transfection of the cells and the preparation of a cell line with stable expression of Kir6.2 from the mouse (accession number AF037313) and SUR2A from the rat (accession number D83598/L40624) were carried out as described in Giblin et al., J. Biol. Chem. 274, 22652-22659 (1999).
60 000 transfected cells per well were inoculated into a poly-D-lysine-coated 96-well microtiter plate (Greiner #650 201). After incubation for 24 h at 37° C., the cells were washed three times with buffer 1 (150 mM NaCl, 2 mM CaCl2, 0.8 mM NaH2PO4, 1 mM MgCl2, 5 mM glucose, 25 mM HEPES, pH=7.4). Subsequently, the buffer solution was replaced by 100 μl of rubidium loading buffer (buffer 1 with 5.4 mM RbCl) and the cells were incubated for a further 3 h at 37° C. The rubidium loading buffer was then removed by washing the cells three times with 200 μl each of potassium chloride wash buffer (buffer 1 with 5.4 mM KCl). After addition of the test substances (70 μl; dissolved in potassium chloride wash buffer with addition of DMSO), the KATP channels of the cells were opened by addition of 70 μl of rilmakalim (2 μM) (cf. Krause et al., Pflügers Arch. 429, 625-635 (1995)) and the cells were incubated at 37° C. for 25 min. Subsequently, the cell supernatants were transferred to a new 96-well microtiter plate and the cells were lyzed by addition of 200 μl of lysis buffer (buffer 1 with 1% Triton X-100). The concentrations of Rb^+ in the cell supernatant and in the cell lyzate were measured by means of atomic absorption spectroscopy using an Al 1200 apparatus (Aurora Instruments Ltd.).
The Rb^+ efflux rate was calculated as [Rb^+SN]/[Rb^+total], wherein [Rb^+SN] is the amount of Rb^+ in the cell supernatant and [Rb^+total] is the sum of the amounts of Rb^+ in the cell supernatant and cell lyzate. IC50 values for the inhibition of the rubidium efflux were calculated with the aid of the Hill equation.

T1 sequence (Q63563 whole entry): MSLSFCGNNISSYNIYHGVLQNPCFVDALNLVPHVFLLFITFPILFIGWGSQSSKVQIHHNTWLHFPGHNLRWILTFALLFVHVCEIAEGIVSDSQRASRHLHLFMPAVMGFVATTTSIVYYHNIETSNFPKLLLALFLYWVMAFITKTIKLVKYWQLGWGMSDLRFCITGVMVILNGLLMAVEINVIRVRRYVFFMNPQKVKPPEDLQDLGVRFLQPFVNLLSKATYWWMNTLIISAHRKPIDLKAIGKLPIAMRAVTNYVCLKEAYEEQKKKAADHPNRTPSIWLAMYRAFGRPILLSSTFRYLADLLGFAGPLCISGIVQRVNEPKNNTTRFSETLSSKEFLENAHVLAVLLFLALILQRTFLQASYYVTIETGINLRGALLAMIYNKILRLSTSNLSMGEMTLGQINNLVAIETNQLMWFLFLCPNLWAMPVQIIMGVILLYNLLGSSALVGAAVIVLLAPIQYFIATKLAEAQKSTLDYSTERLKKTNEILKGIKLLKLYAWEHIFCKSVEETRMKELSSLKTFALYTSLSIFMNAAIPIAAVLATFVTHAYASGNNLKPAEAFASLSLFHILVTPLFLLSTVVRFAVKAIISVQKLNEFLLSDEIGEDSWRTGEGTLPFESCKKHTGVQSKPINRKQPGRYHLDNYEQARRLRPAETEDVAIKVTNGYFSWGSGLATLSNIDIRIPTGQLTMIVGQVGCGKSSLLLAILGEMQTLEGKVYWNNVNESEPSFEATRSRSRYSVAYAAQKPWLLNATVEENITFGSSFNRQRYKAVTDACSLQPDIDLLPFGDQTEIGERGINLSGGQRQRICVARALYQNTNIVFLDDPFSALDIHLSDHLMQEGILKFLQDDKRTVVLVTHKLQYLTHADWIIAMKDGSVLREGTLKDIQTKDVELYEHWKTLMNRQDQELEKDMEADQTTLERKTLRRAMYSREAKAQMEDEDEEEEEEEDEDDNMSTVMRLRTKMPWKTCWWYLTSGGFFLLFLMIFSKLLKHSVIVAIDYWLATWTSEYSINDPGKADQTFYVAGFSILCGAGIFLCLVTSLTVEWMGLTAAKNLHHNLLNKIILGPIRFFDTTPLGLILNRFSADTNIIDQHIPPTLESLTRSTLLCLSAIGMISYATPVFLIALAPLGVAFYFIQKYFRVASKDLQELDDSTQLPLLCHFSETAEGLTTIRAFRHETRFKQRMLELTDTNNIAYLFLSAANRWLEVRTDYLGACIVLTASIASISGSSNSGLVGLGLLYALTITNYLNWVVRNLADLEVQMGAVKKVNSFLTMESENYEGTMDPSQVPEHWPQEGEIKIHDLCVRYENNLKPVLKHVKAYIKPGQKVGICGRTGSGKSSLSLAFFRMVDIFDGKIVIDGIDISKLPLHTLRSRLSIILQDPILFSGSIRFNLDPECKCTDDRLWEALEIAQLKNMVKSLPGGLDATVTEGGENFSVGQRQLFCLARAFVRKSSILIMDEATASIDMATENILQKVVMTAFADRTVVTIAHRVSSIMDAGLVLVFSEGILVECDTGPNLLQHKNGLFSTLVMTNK
T1 sequence (Q61743 whole entry): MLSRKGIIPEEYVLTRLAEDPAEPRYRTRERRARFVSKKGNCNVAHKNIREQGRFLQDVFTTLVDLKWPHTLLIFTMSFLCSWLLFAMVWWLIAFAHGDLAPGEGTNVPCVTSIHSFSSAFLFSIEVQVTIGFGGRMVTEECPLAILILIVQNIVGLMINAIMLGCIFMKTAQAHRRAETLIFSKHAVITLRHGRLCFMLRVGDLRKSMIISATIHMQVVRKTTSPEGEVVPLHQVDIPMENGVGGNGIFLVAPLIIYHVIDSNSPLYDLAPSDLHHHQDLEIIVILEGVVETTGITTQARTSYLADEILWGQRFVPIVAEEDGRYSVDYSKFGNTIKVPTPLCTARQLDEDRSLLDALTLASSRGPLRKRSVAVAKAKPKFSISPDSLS

Structure (SMILES) | IC50 [nM]
COC1(c2ccc(F)cc2)CCC(C(=O)O)(c2ccccc2)CC1 (centres unmarked) [Example 92, 4-(4-Fluorophenyl)-4-methoxy-1-phenylcyclohexanecarboxylic Acid] | < 1000
O=C(O)C1(c2ccccc2)CCC(O)(c2ccc(F)cc2)CC1 (centres unmarked) [Example 93] | < 1000
O=C(O)C1(c2ccccc2)CCC(O)(c2ccc(F)cc2F)CC1 (centres unmarked) [Example 95] | < 1000
O=C(O)C1(c2ccccc2)CCC(O)(c2c(F)cc(F)cc2F)CC1 (centres unmarked) [Example 98] | < 1000
Cc1ccc(C2(O)CCC(C(=O)O)(c3ccccc3)CC2)cc1F (centres unmarked) [Example 100] | < 1000
O=C(O)C1(c2ccccc2)CCC(O)(c2ccc(C(F)(F)F)cc2)CC1 (centres unmarked) [Example 101] | < 1000
O=C(O)C1(c2ccccc2)CCC(O)(c2cccc(C(F)(F)F)c2)CC1 (centres unmarked) [Example 102] | < 1000
O=C(O)C1(c2ccccc2)CCC(O)(c2ccc(C(F)(F)F)cc2F)CC1 (centres unmarked) [Example 103] | < 1000
O=C(O)C1(c2ccccc2)CCC(O)(c2ccc(Cl)c(C(F)(F)F)c2)CC1 (centres unmarked) [Example 104] | < 1000
O=C(O)C1(c2ccccc2)CCC(O)(c2ccc(Br)cc2)CC1 (centres unmarked) [Example 105] | < 1000
COC1(c2cccc(F)c2)CCC(C(=O)O)(c2ccccc2)CC1 (centres unmarked) [Example 119] | < 1000
COC1(c2cccc(F)c2F)CCC(C(=O)O)(c2ccccc2)CC1 (centres unmarked) [Example 120] | < 1000
COC1(c2ccc(C)c(F)c2)CCC(C(=O)O)(c2ccccc2)CC1 (centres unmarked) [Example 123] | < 1000
COC1(c2ccc(C(F)(F)F)cc2)CCC(C(=O)O)(c2ccccc2)CC1 (centres unmarked) [Example 124] | < 1000
COC1(c2cccc(C(F)(F)F)c2)CCC(C(=O)O)(c2ccccc2)CC1 (centres unmarked) [Example 125] | < 1000
COc1ccc(C2(OC)CCC(C(=O)O)(c3ccccc3)CC2)cc1F (centres unmarked) [Example 131] | < 1000
C=Cc1ccccc1C1(OC)CCC(C(=O)O)(c2ccccc2)CC1 (centres unmarked) [Example 135] | < 1000
COC1(c2cnc3ccccc3c2)CCC(C(=O)O)(c2ccccc2)CC1 (centres unmarked) [Example 136] | < 1000
COC1(c2ccc(Cl)cn2)CCC(C(=O)O)(c2ccccc2)CC1 (centres unmarked) [Example 137] | < 1000
CCOC1(c2ccc(F)cc2)CCC(C(=O)O)(c2ccccc2)CC1 (centres unmarked) [Example 141] | < 1000
CCCOC1(c2ccc(F)cc2)CCC(C(=O)O)(c2ccccc2)CC1 (centres unmarked) [Example 148] | < 1000
O=C(O)C1(c2ccccc2)CCC(OCC2CC2)(c2ccc(F)cc2)CC1 (centres unmarked) [Example 150] | < 1000
O=C(O)C1(c2ccccc2)CCC(OCC2CC2)(c2cnc3ccccc3c2)CC1 (centres unmarked) [Example 152] | < 1000
CSc1ccc(C2(O)CCC(C(=O)O)(c3ccccc3)CC2)cc1 (centres unmarked) [Example 161, 4-Hydroxy-4-(4-methylsulfanylphenyl)-1-phenylcyclohexanecarboxylic Acid] | < 1000
COC1(c2ccc(SC)cc2)CCC(C(=O)O)(c2ccccc2)CC1 (centres unmarked) [Example 163, 4-Methoxy-4-(4-methylsulfanylphenyl)-1-phenylcyclohexanecarboxylic Acid] | < 1000
CCOC1(c2cccc(S(C)(=O)=O)c2)CCC(C(=O)O)(c2ccccc2)CC1 (centres unmarked) [Example 167] | < 1000
CCCOC1(c2cccc(S(C)(=O)=O)c2)CCC(C(=O)O)(c2ccccc2)CC1 (centres unmarked) [Example 168] | < 1000

Structure (SMILES) | IC50 [nM]
COC1(c2ccccc2S(C)(=O)=O)CCC(C(=O)O)(c2ccccc2)CC1 (centres unmarked) [Example 172] | < 1000
CCOC1(c2ccccc2S(C)(=O)=O)CCC(C(=O)O)(c2ccccc2)CC1 (centres unmarked) [Example 173] | < 1000
CCCOC1(c2ccccc2S(C)(=O)=O)CCC(C(=O)O)(c2ccccc2)CC1 (centres unmarked) [Example 174] | < 1000
O=C(O)C1(c2ccccc2)CCC(OCC2CC2)(c2cccc(C3CC3)c2)CC1 (centres unmarked) [Example 182, 4-Cyclopropylmethoxy-4-(3-cyclopropylphenyl)-1-phenylcyclohexanecarboxylic Acid] | < 1000
COC1(c2ccc(F)cc2)CCC(C(=O)O)(c2cccc(F)c2)CC1 (centres unmarked) [Example 234] | < 1000
COC1(c2ccc(F)cc2)CCC(C(=O)O)(c2ccccc2F)CC1 (centres unmarked) [Example 235] | < 1000
COC1(c2ccc(F)cc2)CCC(C(=O)O)(c2ccc(OC(F)(F)F)cc2)CC1 (centres unmarked) [Example 236] | < 1000
COC1(c2ccc(F)cc2)CCC(C(=O)O)(c2cccc(OC(F)(F)F)c2)CC1 (centres unmarked) [Example 237] | < 1000
COC1(c2ccc(F)cc2)CCC(C(=O)O)(c2ccccc2OC(F)(F)F)CC1 (centres unmarked) [Example 238] | < 1000
COC1(c2ccc(F)cc2)CCC(C(=O)O)(c2ccc(C)cc2)CC1 (centres unmarked) [Example 239] | < 1000
CCCOC1(c2ccc(F)cc2SC)CCC(C(=O)O)(c2ccc(F)cc2)CC1 (centres unmarked) [Example 242] | < 1000
CSc1cc(F)ccc1C1(OCC2CC2)CCC(C(=O)O)(c2ccc(F)cc2)CC1 (centres unmarked) [Example 243] | < 1000
CSc1ccc(F)cc1C1(OCC2CC2)CCC(C(=O)O)(c2ccc(F)cc2)CC1 (centres unmarked) [Example 247] | < 1000
CCCOC1(c2cc(F)ccc2SC)CCC(C(=O)O)(c2ccc(F)cc2)CC1 (centres unmarked) [Example 248] | < 1000
O=C(O)C1(c2ccc(F)cc2)CCC(OCC2CC2)(c2ccc(F)cc2)CC1 (centres unmarked) [Example 249] | < 1000
CS(=O)(=O)c1cc(F)ccc1C1(OCC2CC2)CCC(C(=O)O)(c2ccc(F)cc2)CC1 (centres unmarked) [Example 253] | < 1000
CS(=O)(=O)c1ccccc1C1(OCC2CC2)CCC(C(=O)O)(c2ccc(F)cc2)CC1 (centres unmarked) [Example 254] | < 1000
CS(=O)(=O)c1ccc(F)cc1C1(OCC2CC2)CCC(C(=O)O)(c2ccc(F)cc2)CC1 (centres unmarked) [Example 258] | < 1000
O=C(O)[C@]1(c2ccc(F)cc2)CC[C@@](OCC2CC2)(c2ccc(F)cn2)CC1 [Example 263, Cis-4-Cyclopropylmethoxy-1-(4-fluorophenyl)-4-(5-fluoropyridin-2-yl)cyclohexanecarboxylic Acid] | < 1000
O=C(O)[C@]1(c2ccccc2)CC[C@@](OCC2CC2)(c2ccc(F)cn2)CC1 [Example 267, Cis-4-Cyclopropylmethoxy-4-(5-fluoropyridin-2-yl)-1-phenylcyclohexanecarboxylic Acid] | < 1000
O=C(O)[C@]1(c2ccccc2)CC[C@](OCC2CC2)(c2nc(-c3ccccc3)n(CC3CC3)n2)CC1 [Example 270, Trans-4-Cyclopropylmethoxy-4-(1-cyclopropylmethyl-5-phenyl-1H-[1,2,4]triazol-3-yl)-1-phenylcyclohexanecarboxylic Acid] | < 1000
O=C(O)C1(c2ccccc2)CCC(OCC2CC2)(c2ccc(-c3ccc(F)c(Br)c3)cc2)CC1 (centres unmarked) [Example 275] | < 1000
O=C(O)[C@]1(c2ccccc2)CC[C@](OCC2CC2)(c2nc(C3CC3)n(CC3CC3)n2)CC1 [Example 296-2, Trans-4-(5-Cyclopropyl-1-cyclopropylmethyl-1H-[1,2,4]triazol-3-yl)-4-cyclopropylmethoxy-1-phenylcyclohexanecarboxylic Acid] | < 1000
CS(=O)(=O)c1cc(F)cc([C@]2(OCC3CC3)CC[C@](C(=O)O)(c3ccc(F)cc3)CC2)c1 [Example 301, Cis-4-Cyclopropylmethoxy-4-(3-fluoro-5-methanesulfonylphenyl)-1-(4-fluorophenyl)cyclohexanecarboxylic Acid] | < 1000
CC(C)S(=O)(=O)c1cc(F)cc([C@]2(OCC3CC3)CC[C@](C(=O)O)(c3ccc(F)cc3)CC2)c1 [Example 304-1, Cis-4-Cyclopropylmethoxy-1-(4-fluorophenyl)-4-[3-fluoro-5-(propane-2-sulfonyl)phenyl]cyclohexanecarboxylic Acid] | < 1000
Cc1c(F)cc([C@]2(OCC3CC3)CC[C@](C(=O)O)(c3ccc(F)cc3)CC2)cc1S(=O)(=O)C(C)(C)C [Example 304-2, Cis-4-Cyclopropylmethoxy-4-[3-fluoro-4-methyl-5-(2-methylpropane-2-sulfonyl)phenyl]-1-(4-fluorophenyl)cyclohexanecarboxylic Acid] | < 1000
